This is an account of results in ChEMBL document CHEMBL5149996, “Structure-Based Optimization and Discovery of M3258, a Specific Inhibitor of the Immunoproteasome Subunit LMP7 (β5i)” (J Med Chem, 2021).

Where only a bound is given, the exact number is not on record here.

For assay [1], the target named is T1, Proteasome subunit beta type-8 (Homo sapiens, UniProt P28062).
T1 sequence (P28062 whole entry): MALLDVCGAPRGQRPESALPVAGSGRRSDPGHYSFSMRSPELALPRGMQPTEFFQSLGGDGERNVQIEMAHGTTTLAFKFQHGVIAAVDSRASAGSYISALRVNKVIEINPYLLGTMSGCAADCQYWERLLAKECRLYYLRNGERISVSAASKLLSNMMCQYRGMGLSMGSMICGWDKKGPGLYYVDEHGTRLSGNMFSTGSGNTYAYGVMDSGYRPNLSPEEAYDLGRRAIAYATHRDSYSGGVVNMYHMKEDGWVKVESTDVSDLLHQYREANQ
The assay can be described thus: Inhibition of human 20S immunoproteasome beta-5i subunit using Suc-LLVY-AMC as substrate preincubated for 2 hrs followed by substrate addition and measured after 1 hr by fluorescence intensity assay.

Assay [2] concerns the target T2, Proteasome Macropain subunit MB1 (Homo sapiens, UniProt P28074).
T2 sequence (P28074 whole entry): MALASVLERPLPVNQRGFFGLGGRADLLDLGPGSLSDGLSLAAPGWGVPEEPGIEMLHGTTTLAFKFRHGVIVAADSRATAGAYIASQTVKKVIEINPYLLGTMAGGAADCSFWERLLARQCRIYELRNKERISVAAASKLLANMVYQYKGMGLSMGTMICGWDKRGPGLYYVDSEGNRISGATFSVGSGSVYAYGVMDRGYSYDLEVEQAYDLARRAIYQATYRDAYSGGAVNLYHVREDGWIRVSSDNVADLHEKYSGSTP
As to the kind of experiment: Inhibition of human 20S proteasome beta5 subunit using Suc-LLVY-AMC as substrate preincubated for 2 hrs followed by substrate addition and measured after 1 hr by fluorescence intensity assay.

For assay [3], the species on record is Homo sapiens. The assay can be described thus: Selectivity ratio of IC50 for inhibition of human 20S proteasome beta5 subunit to IC50 for inhibition of human 20S immunoproteasome beta-5i subunit.
Assay [4] addresses T2, Proteasome Macropain subunit MB1. The assay can be described thus: Inhibition of 20S proteasome beta5 subunit in human A549 cells using Suc-LLVY-luciferin substrate preincubated for 2 hrs followed by substrate addition and measured after 30 mins by luminometric analysis. The class given is cell-based.
Assay [5] has as its target T1, Proteasome subunit beta type-8. As to the kind of experiment: Inhibition of 20S immunoproteasome beta-5i subunit in human PBMC using Ac-ANW-luciferin substrate preincubated for 2 hrs followed by substrate addition and measured after 30 mins by luminometric analysis. It counts as cell-based.
Assay [6] is filed under the species Homo sapiens. As to the kind of experiment: Selectivity ratio of IC50 for inhibition of 20S proteasome beta5 subunit in human A549 cells to IC50 for inhibition of 20S immunoproteasome beta-5i subunit in human PBMC. It counts as cell-based.

One may read the IC50 as the midpoint of a concentration-inhibition curve. Turning to `O=C(Cc1ccccc1)N[C@@H](C[C@@H]1COc2c(Cl)cccc21)B(O)O`, the IC50 in assay [1] was 0.0018 µM; in assay [2] it was 2.9 µM; in assay [4], 6.1 µM; in assay [5], 0.025 µM. Besides, the Ratio IC50 in assay [3] worked out at 1620; in assay [6], 243.

Consider `COCCC(=O)N[C@@H](Cc1coc2ccccc12)B(O)O`, for which the IC50 is 0.0019 µM in assay [1], 0.4 µM in assay [2], 0.241 µM in assay [4] and 0.0106 µM in assay [5]. Moreover, the Ratio IC50 stood at 205 in assay [3] and 23 in assay [6].

As for `O=C(N[C@@H](Cc1coc2ccccc12)B(O)O)[C@@H]1C[C@@H]2CC[C@H]1O2`, the IC50 in assay [1] is 0.089 µM; in assay [2], 15 µM. Also, the Ratio IC50 in assay [3] worked out at 173.

As to `O=C(Cc1ccccc1)N[C@@H](Cc1c(Cl)oc2ccccc12)B(O)O`, the IC50 in assay [1] stood at 0.2 µM; in assay [2] it was 20 µM; in assay [4], 16.5 µM; in assay [5], 0.824 µM. Further, the Ratio IC50 in assay [3] turned out to be 104.

For `Cc1ccc(C[C@H](NC(=O)Cc2ccccc2)B(O)O)c(C)c1`, the IC50 was 0.13 µM in assay [1], 26 µM in assay [2], greater than 30 µM in assay [4] and 0.896 µM in assay [5]. In addition, the Ratio IC50 in assay [3] was 194; in assay [6], greater than 33.

With `Cc1cccc2c1OC[C@H]2C[C@H](NC(=O)Cc1ccccc1)B(O)O`, the IC50 in assay [1] was 0.0031 µM; in assay [2], 7.2 µM; in assay [4], 14 µM; in assay [5], 0.053 µM. Also, the Ratio IC50 is 2330 in assay [3] and 262 in assay [6].

As to `Cc1ccc(C[C@@H](NC(=O)Cc2ccccc2)B(O)O)cc1C`, the IC50 in assay [1] is 1.2 µM; in assay [2], greater than 30 µM; in assay [4] it was 5.9 µM; in assay [5] it was 1.41 µM. Moreover, the Ratio IC50 in assay [3] is greater than 25; in assay [6], 4.2.

For `O=C(Cc1ncccn1)N[C@@H](Cc1coc2ccccc12)B(O)O`, the IC50 was found to be 0.0023 µM in assay [1], 0.23 µM in assay [2], 0.204 µM in assay [4] and 0.0155 µM in assay [5]. In addition, the Ratio IC50 is 101 in assay [3] and 13 in assay [6].

As to `O=C(N[C@@H](Cc1coc2ccccc12)B(O)O)[C@H]1C[C@H]2CC[C@@H]1O2`, the IC50 was 0.14 µM in assay [1] and greater than 30 µM in assay [2]. Besides, in assay [3], the Ratio IC50 is greater than 210.

With `Cc1cccc2c(C[C@H](NC(=O)Cc3ccccc3)B(O)O)coc12`, the IC50 in assay [1] is 0.0045 µM; in assay [2] it was 1.2 µM; in assay [4] it was 2.1 µM; in assay [5], 0.029 µM. Also, the figures for the Ratio IC50 in assay [3] and in assay [6] were 276 and 71, respectively.

As for `COCC(=O)N[C@@H](Cc1coc2ccccc12)B(O)O`, the concentration for half-maximal inhibition (IC50) in assay [1] was found to be 0.006 µM; in assay [2], 0.82 µM; in assay [4] it was 0.52 µM; in assay [5], 0.0267 µM. Also, the Ratio IC50 in assay [3] amounted to 137; in assay [6], 20.

Take `CC(=O)N[C@@H](Cc1coc2ccccc12)B(O)O`: the IC50 came to 0.018 µM in assay [1], 1.4 µM in assay [2], 0.42 µM in assay [4] and 0.0271 µM in assay [5]. The Ratio IC50 in assay [3] was determined as 70; in assay [6], 16.

In the case of `Cc1c(Cl)ccc2c(C[C@H](NC(=O)Cc3ccccc3)B(O)O)coc12`, the IC50 in assay [1] is 0.0064 µM; in assay [2] it was 1.7 µM; in assay [4], 7.33 µM; in assay [5] it was 0.164 µM. For the same compound, the Ratio IC50 was determined as 272 in assay [3] and 44 in assay [6].

In the case of `N#Cc1ccccc1CC(=O)N[C@@H](Cc1coc2ccccc12)B(O)O`, the concentration for half-maximal inhibition (IC50) was 0.0052 µM in assay [1], 1.7 µM in assay [2], 2.22 µM in assay [4] and 0.042 µM in assay [5]. Moreover, the results for the Ratio IC50 in assay [3] and in assay [6] were 334 and 52, respectively.

Regarding `N#Cc1ccccc1CC(=O)N[C@@H](C[C@@H]1COc2c(Cl)cccc21)B(O)O`, the IC50 in assay [1] came out at 0.0029 µM; in assay [2] it was 7.4 µM; in assay [4] it was 20.9 µM; in assay [5], 0.051 µM. The Ratio IC50 in assay [3] amounted to 2570; in assay [6], 406.

With `O=C(Cc1ccccc1)N[C@@H](Cc1ccc(Cl)cc1)B(O)O`, the IC50 was found to be 0.038 µM in assay [1], 5.6 µM in assay [2], 8.75 µM in assay [4] and 0.983 µM in assay [5]. Besides, the values for the Ratio IC50 in assay [3] and in assay [6] were 148 and 8.9, respectively.

Regarding `Cc1ccc(C[C@H](NC(=O)Cc2ccccc2)B(O)O)cc1`, the IC50 in assay [1] came to 0.091 µM; in assay [2], 6.3 µM; in assay [4], 6.29 µM; in assay [5], 0.438 µM. For the same compound, the results for the Ratio IC50 in assay [3] and in assay [6] were 69 and 14, respectively.

Turning to `Cc1ccc(C[C@H](NC(=O)Cc2ccccc2)B(O)O)cc1C`, the IC50 came to 0.085 µM in assay [1], 15 µM in assay [2], 24.5 µM in assay [4] and 0.434 µM in assay [5]. The Ratio IC50 in assay [3] was 182; in assay [6], 56.

Take `O=C(Cc1cnccn1)N[C@@H](Cc1coc2ccccc12)B(O)O`: the IC50 in assay [1] was determined as 0.0019 µM; in assay [2] it was 0.41 µM; in assay [4], 0.328 µM; in assay [5], 0.018 µM. Further, the Ratio IC50 in assay [3] is 212; in assay [6], 18.

`O=C(Cc1cccnc1)N[C@@H](Cc1coc2ccccc12)B(O)O`: the IC50 is 0.0023 µM in assay [1], 0.54 µM in assay [2], 0.646 µM in assay [4] and 0.0247 µM in assay [5]. The Ratio IC50 in assay [3] amounted to 232; in assay [6], 26.

For the compound `Cc1cccc2c1OC[C@H]2C[C@H](NC(=O)Cc1ccccc1C#N)B(O)O`, the IC50 in assay [1] was 0.0044 µM; in assay [2] it was 14 µM; in assay [4] it was greater than 30 µM; in assay [5] it was 0.06 µM. Moreover, the Ratio IC50 in assay [3] is 3150; in assay [6], greater than 496.

On to `O=C(Cc1ccccc1)N[C@@H](Cc1cc2ccccc2o1)B(O)O`, for which the IC50 worked out at 0.029 µM in assay [1], 5 µM in assay [2], 10.1 µM in assay [4] and 0.824 µM in assay [5]. For the same compound, the Ratio IC50 in assay [3] turned out to be 172; in assay [6] it was 12.

Turning to `O=C(Cc1ccccc1)N[C@@H](Cc1coc2c(F)cccc12)B(O)O`, the IC50 in assay [1] is 0.0031 µM; in assay [2], 0.53 µM; in assay [4] it was 0.785 µM; in assay [5], 0.0228 µM. Besides, the Ratio IC50 in assay [3] was determined as 168; in assay [6], 34.

Turning to `O=C(Cc1ccccc1)N[C@@H](C[C@H]1COc2c(Cl)cccc21)B(O)O`, the IC50 in assay [1] is 0.61 µM; in assay [2] it was greater than 30 µM; in assay [4], greater than 30 µM; in assay [5], 9.67 µM. Also, the Ratio IC50 in assay [3] is greater than 49.

Turning to `O=C(Cc1ccccc1)N[C@@H](Cc1ccccc1)B(O)O`, the IC50 turned out to be 0.16 µM in assay [1], 16 µM in assay [2], 9.56 µM in assay [4] and 0.643 µM in assay [5]. In addition, the values for the Ratio IC50 in assay [3] and in assay [6] were 99 and 15, respectively.
